According to ChEMBL document CHEMBL1201862, “PubChem BioAssay data set” (2004):
Calls of active or inactive are those of the source.

How the values were obtained:
[1] = biological target: T1, Rac GTPase-activating protein 1 (Homo sapiens, UniProt Q9H0H5); test: blockers of MgcRacGAP-driven Rac1 GTP hydrolysis – biochemical, ADP Hunter fluorescence, primary and confirmatory, confirmation (AID 624330); format: functional
T1 sequence (Q9H0H5 whole entry): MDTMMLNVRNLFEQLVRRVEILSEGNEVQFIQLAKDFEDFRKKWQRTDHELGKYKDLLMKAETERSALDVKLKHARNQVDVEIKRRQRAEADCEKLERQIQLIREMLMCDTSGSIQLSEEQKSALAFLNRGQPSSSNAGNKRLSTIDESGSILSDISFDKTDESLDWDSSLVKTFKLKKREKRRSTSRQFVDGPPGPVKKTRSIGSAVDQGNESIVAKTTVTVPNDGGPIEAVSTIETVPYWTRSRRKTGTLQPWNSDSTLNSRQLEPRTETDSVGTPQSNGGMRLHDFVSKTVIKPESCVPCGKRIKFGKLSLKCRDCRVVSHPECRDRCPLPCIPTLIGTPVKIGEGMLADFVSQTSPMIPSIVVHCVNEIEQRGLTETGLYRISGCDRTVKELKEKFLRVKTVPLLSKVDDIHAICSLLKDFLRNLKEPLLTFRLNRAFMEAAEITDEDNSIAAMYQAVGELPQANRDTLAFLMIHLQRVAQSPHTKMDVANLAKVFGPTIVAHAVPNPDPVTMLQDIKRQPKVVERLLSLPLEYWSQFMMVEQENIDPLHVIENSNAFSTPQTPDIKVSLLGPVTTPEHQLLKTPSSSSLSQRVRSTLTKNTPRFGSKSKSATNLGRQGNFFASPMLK

[2] = biological target: Long-chain-fatty-acid--AMP ligase FadD28 (Mycobacterium tuberculosis, UniProt P9WQ59); test: Fluorescence polarization aasay to screen for inhibitors that compete for the binding of FadD28 to a bisubstrate Measured in Biochemical System Using Plate Reader - 2147-01_Inhibitor_Dose_CherryPick_Activity.; format: functional, Mycobacterium tuberculosis H37Rv
[3] = biological target: T2, RNA-binding protein pos-1 (Caenorhabditis elegans, UniProt G5EF15); test: disruptors of C. elegans POS-1 RNA interaction – biochemical, fluorescence polarization, dose response (AID 1964);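 further: purified POS-1 fused to maltose binding protein made in E. coli; potency of compounds blocking POS-1 binding to fluorescent RNA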
T2 sequence (G5EF15 whole entry): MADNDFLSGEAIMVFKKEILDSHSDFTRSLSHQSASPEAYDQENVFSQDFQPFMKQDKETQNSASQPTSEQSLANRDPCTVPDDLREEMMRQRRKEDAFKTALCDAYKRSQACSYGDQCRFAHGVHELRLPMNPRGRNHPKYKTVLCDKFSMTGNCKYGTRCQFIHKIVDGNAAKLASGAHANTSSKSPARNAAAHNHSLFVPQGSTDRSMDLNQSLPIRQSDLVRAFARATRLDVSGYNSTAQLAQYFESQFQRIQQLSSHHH

[4] = biological target: T3, Zinc finger protein mex-5 (Caenorhabditis elegans, UniProt Q9XUB2); test: potency of MEX-5 RNA-binding blockers – biochemical, C. elegans, fluorescence polarization, dose response (AID 1960)
T3 sequence (Q9XUB2 whole entry): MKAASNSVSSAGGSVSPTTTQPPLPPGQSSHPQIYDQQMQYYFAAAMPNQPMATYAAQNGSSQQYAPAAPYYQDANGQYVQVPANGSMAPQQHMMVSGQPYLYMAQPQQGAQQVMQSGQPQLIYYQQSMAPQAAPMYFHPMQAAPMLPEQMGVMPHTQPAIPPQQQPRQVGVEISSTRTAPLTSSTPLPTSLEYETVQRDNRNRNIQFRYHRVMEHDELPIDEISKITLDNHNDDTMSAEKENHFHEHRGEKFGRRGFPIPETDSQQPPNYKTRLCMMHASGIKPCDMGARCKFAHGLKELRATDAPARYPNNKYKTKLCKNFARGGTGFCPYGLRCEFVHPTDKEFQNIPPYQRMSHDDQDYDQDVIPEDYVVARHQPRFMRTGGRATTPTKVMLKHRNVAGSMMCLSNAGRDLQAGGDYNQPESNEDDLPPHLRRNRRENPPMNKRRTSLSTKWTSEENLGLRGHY

[5] = biological target: T4, Replicative DNA helicase DnaB (Mycobacterium tuberculosis, UniProt P9WMR3); test: DnaB intein splicing inhibitors, dose response, biochemical, cell-free fluorescence (AID 449749); format: functional
T4 sequence (P9WMR3 whole entry): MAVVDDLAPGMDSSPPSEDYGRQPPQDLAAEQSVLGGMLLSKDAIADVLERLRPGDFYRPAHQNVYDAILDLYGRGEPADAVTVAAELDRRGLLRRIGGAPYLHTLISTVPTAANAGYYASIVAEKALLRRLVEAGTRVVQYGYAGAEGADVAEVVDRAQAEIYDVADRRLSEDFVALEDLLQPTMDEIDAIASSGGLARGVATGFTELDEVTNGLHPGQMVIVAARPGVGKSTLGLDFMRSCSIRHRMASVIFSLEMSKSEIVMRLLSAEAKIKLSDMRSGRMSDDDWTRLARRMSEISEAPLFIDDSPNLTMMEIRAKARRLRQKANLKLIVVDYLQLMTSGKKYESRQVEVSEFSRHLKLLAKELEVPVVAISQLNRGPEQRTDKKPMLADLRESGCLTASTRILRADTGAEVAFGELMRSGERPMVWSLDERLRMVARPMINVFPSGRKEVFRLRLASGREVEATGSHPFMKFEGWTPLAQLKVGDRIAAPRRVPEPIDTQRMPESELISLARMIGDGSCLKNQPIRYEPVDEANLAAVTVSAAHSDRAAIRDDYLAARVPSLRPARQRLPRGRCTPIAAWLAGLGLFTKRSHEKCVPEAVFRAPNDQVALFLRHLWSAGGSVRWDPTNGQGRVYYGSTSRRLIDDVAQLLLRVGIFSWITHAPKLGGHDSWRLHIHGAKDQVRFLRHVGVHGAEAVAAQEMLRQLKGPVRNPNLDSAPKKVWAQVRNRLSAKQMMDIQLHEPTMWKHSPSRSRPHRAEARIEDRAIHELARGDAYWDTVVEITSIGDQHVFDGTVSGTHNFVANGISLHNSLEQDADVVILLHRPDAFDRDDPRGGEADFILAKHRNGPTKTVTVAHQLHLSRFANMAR

[6] = biological target: T5, Protein RecA (Mycobacterium tuberculosis, UniProt P9WHJ3); test: Fluorescence Cell-Free Homogeneous Dose Retest to Identify Inhibitors of RecA-Intein Splicing Activity. [Related pubchem assays (depositor defined):AID2097, AID2223, AID489010, AID492950]; format: functional
T5 sequence (P9WHJ3 whole entry): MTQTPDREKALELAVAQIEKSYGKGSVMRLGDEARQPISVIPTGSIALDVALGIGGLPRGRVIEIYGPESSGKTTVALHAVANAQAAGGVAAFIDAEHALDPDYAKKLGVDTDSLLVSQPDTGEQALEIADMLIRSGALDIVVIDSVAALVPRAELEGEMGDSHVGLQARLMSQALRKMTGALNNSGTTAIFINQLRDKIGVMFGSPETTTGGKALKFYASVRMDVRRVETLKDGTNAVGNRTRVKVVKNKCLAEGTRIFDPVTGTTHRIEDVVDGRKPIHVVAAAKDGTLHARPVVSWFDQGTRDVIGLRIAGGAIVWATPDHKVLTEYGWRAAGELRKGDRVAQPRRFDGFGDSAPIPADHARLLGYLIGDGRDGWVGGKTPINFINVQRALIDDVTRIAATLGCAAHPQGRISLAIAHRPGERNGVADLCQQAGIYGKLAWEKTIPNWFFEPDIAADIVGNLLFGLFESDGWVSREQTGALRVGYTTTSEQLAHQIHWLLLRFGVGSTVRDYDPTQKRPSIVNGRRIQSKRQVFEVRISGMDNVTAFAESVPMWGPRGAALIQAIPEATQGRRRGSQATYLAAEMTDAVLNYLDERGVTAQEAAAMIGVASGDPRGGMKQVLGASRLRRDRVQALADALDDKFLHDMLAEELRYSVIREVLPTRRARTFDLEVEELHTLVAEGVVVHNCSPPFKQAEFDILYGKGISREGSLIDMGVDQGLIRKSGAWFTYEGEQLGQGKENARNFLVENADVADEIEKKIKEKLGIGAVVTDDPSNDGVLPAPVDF

[7] = biological target: T6, Sentrin-specific protease 8 (Homo sapiens, UniProt Q96LD8); format: functional
T6 sequence (Q96LD8 whole entry): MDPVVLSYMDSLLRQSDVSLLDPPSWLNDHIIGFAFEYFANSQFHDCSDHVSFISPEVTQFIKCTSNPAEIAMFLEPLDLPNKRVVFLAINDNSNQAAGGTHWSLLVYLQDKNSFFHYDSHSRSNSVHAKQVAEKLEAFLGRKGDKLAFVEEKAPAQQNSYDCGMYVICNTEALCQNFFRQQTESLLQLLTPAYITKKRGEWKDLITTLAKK

[8] = biological target: T6, Sentrin-specific protease 8; format: functional; remark: listed apart in the source
[9] = biological target: Beta-lactamase (Salmonella choleraesuis (strain SC-B67), UniProt Q5J463)
Chain of Beta-lactamase (Salmonella choleraesuis (strain SC-B67), UniProt Q5J463) (Q5J463 whole entry): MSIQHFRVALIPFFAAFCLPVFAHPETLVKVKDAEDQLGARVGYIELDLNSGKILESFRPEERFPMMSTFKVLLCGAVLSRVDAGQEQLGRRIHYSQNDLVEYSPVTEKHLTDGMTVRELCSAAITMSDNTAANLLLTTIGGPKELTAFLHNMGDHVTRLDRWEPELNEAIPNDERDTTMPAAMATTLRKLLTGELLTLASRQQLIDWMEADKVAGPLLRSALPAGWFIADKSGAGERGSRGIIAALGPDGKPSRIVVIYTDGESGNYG

[10] = biological target: Beta-lactamase (Pseudomonas aeruginosa, UniProt Q79MP6);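 further: biochemical dose-response test of metallo-beta-lactamase enzyme inhibition, read out by epi-absorbance; purified recombinant IMP-1 metallo-beta-lactamase with nitrocefin as substrate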
Chain of Beta-lactamase (Pseudomonas aeruginosa, UniProt Q79MP6) (Q79MP6 whole entry): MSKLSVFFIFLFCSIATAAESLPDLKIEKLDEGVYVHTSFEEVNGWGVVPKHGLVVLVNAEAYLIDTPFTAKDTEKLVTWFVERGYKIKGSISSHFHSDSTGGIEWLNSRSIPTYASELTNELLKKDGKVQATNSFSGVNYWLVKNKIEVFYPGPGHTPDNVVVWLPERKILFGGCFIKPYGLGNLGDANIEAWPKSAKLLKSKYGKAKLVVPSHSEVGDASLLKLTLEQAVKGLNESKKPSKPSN

[11] = cells; format: functional, cell-based
[12] = biological target: T7, Trace amine-associated receptor 1 (Homo sapiens, UniProt Q96RJ0); test: Fluorescence-based cell-based high throughput dose response assay to identify agonists of the human trace amine associated receptor 1 (TAAR1).; format: functional
T7 sequence (Q96RJ0 whole entry): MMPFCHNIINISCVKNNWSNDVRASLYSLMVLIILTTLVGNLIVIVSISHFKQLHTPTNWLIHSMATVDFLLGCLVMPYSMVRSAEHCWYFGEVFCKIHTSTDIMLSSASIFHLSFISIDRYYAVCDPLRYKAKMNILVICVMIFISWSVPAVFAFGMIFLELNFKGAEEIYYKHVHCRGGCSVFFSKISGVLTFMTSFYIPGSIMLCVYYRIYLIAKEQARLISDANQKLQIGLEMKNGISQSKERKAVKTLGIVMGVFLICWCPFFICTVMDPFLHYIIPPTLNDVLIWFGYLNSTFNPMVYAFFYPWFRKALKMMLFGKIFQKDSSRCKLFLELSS

[13] = biological target: T7, Trace amine-associated receptor 1; test: Counterscreen for agonists of the human trace amine associated receptor 1 (hTAAR1): Fluorescence-based cell-based high throughput dose response assay to identify hTAAR1 agonist that also desensitize TAAR1 receptor response.; format: functional
[14] = cells; format: functional, cell-based; remark: listed apart in the source
[15] = biological target: Mu-type opioid receptor (Homo sapiens, UniProt P35372); format: functional, cell-based;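 further: U2OS cells with beta-arrestin recruitment to OPRM1 by beta-gal complementation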
Chain of Mu-type opioid receptor (P35372 whole entry): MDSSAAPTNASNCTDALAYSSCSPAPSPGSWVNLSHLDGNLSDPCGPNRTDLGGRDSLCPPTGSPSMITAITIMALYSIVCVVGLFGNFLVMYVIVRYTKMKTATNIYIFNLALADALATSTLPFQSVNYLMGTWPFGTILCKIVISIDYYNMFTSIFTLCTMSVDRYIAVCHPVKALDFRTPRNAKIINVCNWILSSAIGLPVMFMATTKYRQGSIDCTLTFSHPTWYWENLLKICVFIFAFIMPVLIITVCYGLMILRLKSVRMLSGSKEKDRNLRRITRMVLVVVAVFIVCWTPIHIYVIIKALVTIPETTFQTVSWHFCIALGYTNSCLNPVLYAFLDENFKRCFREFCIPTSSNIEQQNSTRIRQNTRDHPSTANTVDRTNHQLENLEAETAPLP

[16] = biological target: 5-hydroxytryptamine receptor 2A (Mus musculus, UniProt P35363); format: functional, cell-based;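 further: CHO-K1 cells with tagged receptor and beta-arrestin; agonist potency measured as compound-induced activation of the receptor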
Chain of 5-hydroxytryptamine receptor 2A (P35363 whole entry): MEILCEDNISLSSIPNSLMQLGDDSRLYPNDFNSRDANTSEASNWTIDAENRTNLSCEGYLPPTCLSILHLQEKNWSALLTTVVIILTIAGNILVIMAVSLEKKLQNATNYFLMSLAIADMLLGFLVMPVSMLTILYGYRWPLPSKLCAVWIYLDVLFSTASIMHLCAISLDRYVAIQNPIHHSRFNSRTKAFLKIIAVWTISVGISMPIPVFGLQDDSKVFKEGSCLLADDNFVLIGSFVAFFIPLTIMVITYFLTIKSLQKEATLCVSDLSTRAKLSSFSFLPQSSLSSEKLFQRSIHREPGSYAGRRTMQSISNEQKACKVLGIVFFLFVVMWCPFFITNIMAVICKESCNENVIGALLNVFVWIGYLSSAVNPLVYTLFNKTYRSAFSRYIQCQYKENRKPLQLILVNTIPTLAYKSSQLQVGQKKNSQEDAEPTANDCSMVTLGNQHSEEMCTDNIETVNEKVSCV

[17] = biological target: T8, Methionyl-tRNA synthetase, putative (Trypanosoma brucei brucei, UniProt Q38C91); format: functional, Trypanosoma brucei brucei strain 927/4 GUTat10.1
T8 sequence (Q38C91 whole entry): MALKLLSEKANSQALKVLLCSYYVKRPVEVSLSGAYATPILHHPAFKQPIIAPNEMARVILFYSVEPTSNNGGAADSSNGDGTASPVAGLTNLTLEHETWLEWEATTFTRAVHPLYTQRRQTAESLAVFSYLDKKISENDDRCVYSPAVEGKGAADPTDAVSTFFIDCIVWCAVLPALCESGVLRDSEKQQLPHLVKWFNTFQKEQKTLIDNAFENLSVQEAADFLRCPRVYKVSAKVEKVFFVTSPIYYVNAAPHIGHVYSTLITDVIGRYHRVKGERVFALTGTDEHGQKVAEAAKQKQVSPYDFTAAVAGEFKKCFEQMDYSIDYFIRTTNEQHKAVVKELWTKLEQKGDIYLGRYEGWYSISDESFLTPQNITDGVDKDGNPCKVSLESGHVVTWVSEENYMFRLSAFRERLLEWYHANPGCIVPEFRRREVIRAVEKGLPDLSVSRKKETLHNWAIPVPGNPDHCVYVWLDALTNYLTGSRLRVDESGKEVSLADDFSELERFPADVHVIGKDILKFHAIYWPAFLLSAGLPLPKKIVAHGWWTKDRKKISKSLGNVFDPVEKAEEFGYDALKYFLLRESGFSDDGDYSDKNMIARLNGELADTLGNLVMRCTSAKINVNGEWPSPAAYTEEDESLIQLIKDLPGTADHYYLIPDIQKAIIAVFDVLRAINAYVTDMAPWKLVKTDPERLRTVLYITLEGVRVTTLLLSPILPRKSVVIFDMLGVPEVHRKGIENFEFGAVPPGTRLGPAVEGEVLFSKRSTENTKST

[18] = biological target: T8, Methionyl-tRNA synthetase, putative; format: functional, Trypanosoma brucei brucei strain 927/4 GUTat10.1; remark: listed apart in the source
[19] = Counterscreen for inhibitors of Trypanosoma brucei methionyl tRNA synthetase (MetRS): Luminescence-based cell-based high throughput dose response assay to identify compounds that are cytotoxic to Jurkat human T lymphocyte cells.; format: functional
[20] = general mammalian cell viability loss – activator set, cherry-pick, cytotoxicity control for miR-122 modulator project, dose response (AID 720690); format: functional, cell-based;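 further: HEK293T human cells scored for general mammalian cytotoxicity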
[21] = activation of miR-122 Renilla sensor silencing – cell-based, Huh7 psiCHECK-miR122, Renilla luciferase, cherry-picked, dose response (AID 651956); format: functional;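 further: huh7 hepatoma cells stably carrying a psiCHECK-2 miR-122 sensor plasmid; renilla luciferase signal reporting endogenous miR-122 activity after 48 h compound exposure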
[22] = general mammalian cell viability loss – inhibitor set, cherry-pick, set 2, cytotoxicity control for miR-122 modulator project, dose response (AID 720697); format: functional, cell-based
[23] = biological target: T9, Botulinum neurotoxin type A (Clostridium botulinum (strain Hall / ATCC 3502 / NCTC 13319 / Type A), UniProt P0DPI1); test: Confirmatory FRET assay using full length substrates for Botulinum neurotoxin light chain A protease, with Powder Set01.; format: functional
T9 sequence (P0DPI1 2-448 limits assumed): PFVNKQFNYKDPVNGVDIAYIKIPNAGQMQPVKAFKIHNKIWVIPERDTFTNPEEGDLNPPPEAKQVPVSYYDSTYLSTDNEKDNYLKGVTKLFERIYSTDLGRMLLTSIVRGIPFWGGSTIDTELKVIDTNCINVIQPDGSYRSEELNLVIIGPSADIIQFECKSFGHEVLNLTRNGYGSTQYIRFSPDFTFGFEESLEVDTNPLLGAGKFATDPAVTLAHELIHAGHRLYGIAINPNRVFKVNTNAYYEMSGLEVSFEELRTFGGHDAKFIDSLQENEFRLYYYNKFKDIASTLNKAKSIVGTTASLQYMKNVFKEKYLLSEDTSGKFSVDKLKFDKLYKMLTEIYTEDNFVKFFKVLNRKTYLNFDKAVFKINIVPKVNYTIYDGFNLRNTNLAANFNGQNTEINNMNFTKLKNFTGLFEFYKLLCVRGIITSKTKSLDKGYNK

[24] = biological target: Lethal factor (Bacillus anthracis, UniProt P15917); test: High-throughput multiplex microsphere dose response for inhibitors of toxin protease, specifically Lethal Factor protease, compounds from Powder Set 01.; format: functional, Bacillus anthracis str. A2012; conditions: read-out: EC50_MICROM
Chain of Lethal factor (P15917 whole entry): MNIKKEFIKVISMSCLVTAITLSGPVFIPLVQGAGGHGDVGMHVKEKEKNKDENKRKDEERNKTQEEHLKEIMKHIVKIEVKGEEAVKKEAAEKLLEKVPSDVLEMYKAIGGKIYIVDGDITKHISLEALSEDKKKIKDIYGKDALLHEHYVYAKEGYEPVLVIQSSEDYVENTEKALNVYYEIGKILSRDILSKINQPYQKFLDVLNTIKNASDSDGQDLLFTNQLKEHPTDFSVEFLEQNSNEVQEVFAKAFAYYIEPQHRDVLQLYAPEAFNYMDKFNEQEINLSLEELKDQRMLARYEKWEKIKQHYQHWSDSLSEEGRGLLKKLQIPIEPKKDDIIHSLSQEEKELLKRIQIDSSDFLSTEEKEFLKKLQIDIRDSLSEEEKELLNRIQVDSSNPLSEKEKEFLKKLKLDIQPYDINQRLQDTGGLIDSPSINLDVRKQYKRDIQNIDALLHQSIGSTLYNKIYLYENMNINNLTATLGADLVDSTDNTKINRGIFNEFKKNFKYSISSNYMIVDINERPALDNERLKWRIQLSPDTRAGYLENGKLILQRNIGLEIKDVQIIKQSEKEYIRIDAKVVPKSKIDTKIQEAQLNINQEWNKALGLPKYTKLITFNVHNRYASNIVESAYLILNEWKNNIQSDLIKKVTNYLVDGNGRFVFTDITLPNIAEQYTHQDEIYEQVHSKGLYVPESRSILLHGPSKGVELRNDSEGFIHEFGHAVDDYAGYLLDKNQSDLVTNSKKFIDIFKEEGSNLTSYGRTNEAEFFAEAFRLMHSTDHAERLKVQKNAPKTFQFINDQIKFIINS

[25] = biological target: T9, Botulinum neurotoxin type A; test: High-throughput multiplex microsphere dose response for inhibitors of toxin protease, specifically Botulinum neurotoxin light chain A protease, compounds from Powder Set 01.; format: functional, Clostridium botulinum A str. ATCC 3502; conditions: read-out: EC50_MICROM
[26] = biological target: Botulinum neurotoxin type F (Clostridium botulinum, UniProt P30996); test: High-throughput multiplex microsphere dose response for inhibitors of toxin protease, specifically Botulinum neurotoxin light chain F protease, compounds from Powder Set 01.; format: functional, Clostridium botulinum Bf; conditions: read-out: EC50_MICROM
Chain of Botulinum neurotoxin type F (P30996 1-436 limits assumed): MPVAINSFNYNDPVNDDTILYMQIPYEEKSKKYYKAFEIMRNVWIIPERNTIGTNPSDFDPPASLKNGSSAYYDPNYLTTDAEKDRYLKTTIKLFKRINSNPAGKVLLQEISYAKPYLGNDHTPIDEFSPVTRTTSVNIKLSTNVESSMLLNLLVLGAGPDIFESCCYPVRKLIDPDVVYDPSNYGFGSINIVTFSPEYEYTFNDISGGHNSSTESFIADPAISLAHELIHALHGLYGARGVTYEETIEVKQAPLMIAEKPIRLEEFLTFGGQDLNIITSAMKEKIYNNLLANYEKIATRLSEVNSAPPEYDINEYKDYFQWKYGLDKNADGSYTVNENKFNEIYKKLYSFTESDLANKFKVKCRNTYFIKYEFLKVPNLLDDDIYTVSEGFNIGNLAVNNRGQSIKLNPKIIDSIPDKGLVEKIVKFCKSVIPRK

[27] = test system: HeLa; test: viability loss in HeLa cells – cell-based, ATP luminescence, cherry-pick samples, cytotoxicity control, dose response (AID 687004); format: functional; conditions: Homo sapiens
[28] = viability loss in A549 lung cancer cells – cell-based, cherry-picks, […], cytotoxicity control, dose response (AID 1053119); format: functional
[29] = viability loss in HepG2 hepatoma cells – cell-based, cherry-picks, set 5, cytotoxicity control, dose response (AID 1053118); format: functional
[30] = biological target: Protein Wnt-3a (Mus musculus, UniProt P27467); test: SAR analysis of small molecule antagonists of Gli-SUFU in a Wnt3a luminescent reporter assay.; format: functional
Chain of Protein Wnt-3a (P27467 whole entry): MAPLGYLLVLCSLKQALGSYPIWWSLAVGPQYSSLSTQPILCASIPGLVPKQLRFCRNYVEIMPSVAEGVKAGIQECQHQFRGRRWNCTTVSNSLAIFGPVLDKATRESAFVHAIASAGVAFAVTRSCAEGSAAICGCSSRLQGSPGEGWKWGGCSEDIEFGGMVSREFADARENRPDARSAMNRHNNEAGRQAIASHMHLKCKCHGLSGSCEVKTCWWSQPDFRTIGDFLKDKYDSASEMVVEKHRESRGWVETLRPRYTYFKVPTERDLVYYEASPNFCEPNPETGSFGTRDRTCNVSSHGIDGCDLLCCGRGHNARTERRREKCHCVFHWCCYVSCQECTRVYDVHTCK

O=C(CNS(=O)(=O)c1ccc([N+](=O)[O-])cc1)N/N=C/c1ccc(O)cc1O
IC50 [1]: 128 µM (active)
AC50 [2]: 9.67 µM (active)
EC50 [3]: 8.98 µM (active)
EC50 [4]: 8.33 µM (active)

COC(=O)CCCC1=CC2=C(c3ccccc3)C(=O)C(C)(OC(=O)C3CCCC3)C(=O)C2=CN1CCCCO (stereo not given)
AC50 [5]: 68.9 µM (active)
EC50 [6]: 18.4 µM (active)
IC50 [7]: 2.93 µM (active)
IC50 [8]: 6.43 µM (active)

COc1ccc(-c2occ(C(=O)O)c2C(=O)O)cc1
IC50 [9]: > 59.6 µM (inactive)
IC50 [10]: 23.5 µM (inactive)

O=C(C(=O)N1CCc2ccccc2C1)c1cn(CC(=O)N2CCCCC2)c2ccccc12
EC50 [11]: > 29.9 µM (inactive)
EC50 [12]: 0.879 µM (active)
IC50 [13]: 3.57 µM (active)
IC50 [14]: > 29.9 µM (inactive)

Clc1ccc(CN2CCN(c3ncccn3)CC2)cc1
EC50 [15]: 92.5 µM (inactive)
EC50 [16]: 0.153 µM (active)

O=C(Nc1ccccc1)Nc1nnc(CSCc2ccccc2Cl)s1
IC50 [17]: 46.7 µM (inactive)
IC50 [18]: 6.26 µM (active)
IC50 [19]: 27.7 µM (inactive)

C[C@@H]1CN([C@@H](C)CO)C(=O)Cc2cc(NC(=O)c3ccncc3)ccc2O[C@H]1CN(C)Cc1ccc(-c2ccccc2)cc1
AC50 [20]: 23.6 µM (active)
AC50 [21]: 4.94 µM (active)
AC50 [22]: 15.9 µM (active)

Clc1ccc(-c2cn3nc(-c4ccccc4)c(-c4ccccc4)nc3n2)cc1
EC50 [23]: 2.4 µM (active)
EC50 [24]: 1.6 µM (active)
EC50 [25]: 1 µM (active)
EC50 [26]: 7.4 µM (active)

C[C@@H]1CN([C@@H](C)CO)C(=O)c2cc(NS(=O)(=O)c3cn(C)cn3)ccc2O[C@@H](C)CCCCO[C@@H]1CN(C)Cc1ccc(C(F)(F)F)cc1
AC50 [27]: 13 µM (active)

O=C(c1cccnc1)N1C[C@@H]2[C@H](c3ccccc31)[C@@H](CO)N2CC1CCCC1
AC50 [28]: > 52 µM (inactive)
AC50 [29]: > 52 µM (inactive)

CC(C)Nc1cc(NC(=O)c2ccccc2)ncn1
IC50 [30]: > 21.8 µM (inactive)
